Reference: the NIST ThermoML archive (doi:10.1016/j.jct.2014.07.026)

Assay: mn = molality of the nth substance listed, in mol/kg
Conditions: 100 kPa, Liquid; for mass density: Vibrating tube method; for speed of sound: Frequency=2 MHz, Linear variable-path acoustic interferometer

CC(C)[C@H](N)C(=O)[O-].CCCCn1cc[n+](C)c1 [1-butyl-3-methylimidazolium L-valinate] + O
Conditions | mass density [kg/m3] | speed of sound [m/s]
293.15 K, m1 = 0.03333 | 999.132 | –
293.15 K, m1 = 0.05233 | 999.647 | –
293.15 K, m1 = 0.07111 | 1000.15 | –
293.15 K, m1 = 0.08607 | 1000.55 | –
293.15 K, m1 = 0.1001 | 1000.93 | –
293.15 K, m1 = 0.138 | 1001.93 | –
293.15 K, m1 = 0.1804 | 1003.02 | –
293.15 K, m1 = 0.2187 | 1004 | –
293.15 K, m1 = 0.2653 | 1005.21 | –
293.15 K, m1 = 0.3295 | 1006.77 | –
293.15 K, m1 = 0.3595 | 1007.51 | –
293.15 K, m1 = 0.4046 | 1008.61 | –
293.15 K, m1 = 0.4561 | 1009.85 | –
298.15 K, m1 = 0.03333 | 997.952 | –
298.15 K, m1 = 0.05233 | 998.454 | –
298.15 K, m1 = 0.06361 | – | 1509.7
298.15 K, m1 = 0.07111 | 998.947 | –
298.15 K, m1 = 0.08607 | 999.329 | –
298.15 K, m1 = 0.1001 | 999.708 | –
298.15 K, m1 = 0.1178 | – | 1519.6
298.15 K, m1 = 0.138 | 1000.66 | –
298.15 K, m1 = 0.1494 | – | 1525.3
298.15 K, m1 = 0.1804 | 1001.72 | –
298.15 K, m1 = 0.2009 | – | 1534.4
298.15 K, m1 = 0.2187 | 1002.66 | –
298.15 K, m1 = 0.2467 | – | 1542.1
298.15 K, m1 = 0.2653 | 1003.87 | –
298.15 K, m1 = 0.2965 | – | 1550.5
298.15 K, m1 = 0.3295 | 1005.34 | –
298.15 K, m1 = 0.3434 | – | 1558.2
298.15 K, m1 = 0.3595 | 1006.08 | –
298.15 K, m1 = 0.4046 | 1007.11 | –
298.15 K, m1 = 0.4049 | – | 1568.3
298.15 K, m1 = 0.4496 | – | 1575.2
298.15 K, m1 = 0.4561 | 1008.32 | –
298.15 K, m1 = 0.513 | – | 1584.9
298.15 K, m1 = 0.5714 | – | 1593.8
303.15 K, m1 = 0.03333 | 996.535 | –
303.15 K, m1 = 0.05233 | 997.021 | –
303.15 K, m1 = 0.07111 | 997.503 | –
303.15 K, m1 = 0.08607 | 997.878 | –
303.15 K, m1 = 0.1001 | 998.242 | –
303.15 K, m1 = 0.138 | 999.178 | –
303.15 K, m1 = 0.1804 | 1000.22 | –
303.15 K, m1 = 0.2187 | 1001.13 | –
303.15 K, m1 = 0.2653 | 1002.26 | –
303.15 K, m1 = 0.3295 | 1003.73 | –
303.15 K, m1 = 0.3595 | 1004.44 | –
303.15 K, m1 = 0.4046 | 1005.44 | –
303.15 K, m1 = 0.4561 | 1006.67 | –
308.15 K, m1 = 0.03234 | 994.871 | –
308.15 K, m1 = 0.05133 | 995.354 | –
308.15 K, m1 = 0.06493 | 995.698 | –
308.15 K, m1 = 0.08884 | 996.286 | –
308.15 K, m1 = 0.1058 | 996.698 | –
308.15 K, m1 = 0.1347 | 997.389 | –
308.15 K, m1 = 0.181 | 998.492 | –
308.15 K, m1 = 0.2182 | 999.371 | –
308.15 K, m1 = 0.2583 | 1000.3 | –
308.15 K, m1 = 0.3177 | 1001.66 | –
308.15 K, m1 = 0.3591 | 1002.6 | –
308.15 K, m1 = 0.4041 | 1003.61 | –
308.15 K, m1 = 0.4561 | 1004.69 | –
313.15 K, m1 = 0.03234 | 993.036 | –
313.15 K, m1 = 0.05133 | 993.509 | –
313.15 K, m1 = 0.06493 | 993.842 | –
313.15 K, m1 = 0.08884 | 994.427 | –
313.15 K, m1 = 0.1058 | 994.828 | –
313.15 K, m1 = 0.1347 | 995.499 | –
313.15 K, m1 = 0.181 | 996.579 | –
313.15 K, m1 = 0.2182 | 997.425 | –
313.15 K, m1 = 0.2583 | 998.325 | –
313.15 K, m1 = 0.3177 | 999.623 | –
313.15 K, m1 = 0.3591 | 1000.51 | –
313.15 K, m1 = 0.4041 | 1001.5 | –
313.15 K, m1 = 0.4561 | 1002.64 | –
